In publication PMC11472313, “Development of Fragment-Based Inhibitors of the Bacterial Deacetylase LpxC with Low Nanomolar Activity” (Journal of Medicinal Chemistry, 2024):

System: LpxC–9 complex
Experiment: NMR-ILOE (interligand NOESY) of fragment hits with LpxC and 9
Settings: fragment hits binding the LpxC–9 complex by STD and WaterLogsy; 6 μM LpxC
Experimental: In order to find fragments specifically addressing the UDP-binding pocket, which can be linked to the LpxC inhibitors, a fragment screen was performed against LpxC bound to 9. First, 650 fragments in cocktails of five were tested for binding to the LpxC–9 complex using STD-NMR and WaterLogsy experiments. Then, fragment hits identified as potential binders were tested one by one against the LpxC–9 complex by STD-NMR and WaterLogsy experiments performed under identical experimental conditions. A total of 97 fragment hits were identified as binders, leading to a hit rate of 15%.
Then, NMR-ILOE experiments were performed with selected fragment hits in the presence of LpxC and the unsubstituted hydroxamic acid 9. This allowed the identification of fragments that bind in the enzyme’s UDP-binding pocket near the methylene group in the α-position of the inhibitor’s hydroxamate moiety. Weak interligand NOESY peaks were observed between inhibitor 9 and nine fragments. By contrast, no interligand NOESY peaks were observed between compound 9 and the other ten fragments. […] Unexpectedly, we also observed interligand NOESY between the fragment protons and protons of the morpholino moiety.
Standard 1D and STD NMR spectra were acquired at 20 °C with a Bruker 600 MHz NMR spectrometer equipped with a 5 mm cryoprobe. Parameters for the STD experiments (saturation frequency and saturation time) were identical for all samples. […] STD saturation time was 2 s. WaterLOGSY mixing time was 1.5 s. Two NOESY experiments were recorded with mixing times of 0.6 and 0.3 s. STD and WaterLOGSY spectra were recorded with the same NMR tubes containing 3 μM LpxC, compound 9 at 500 μM, and fragments at 500 μM. For NOESY experiments, NMR tubes contained 6 μM LpxC.
Temperature was set to 293 K for all NMR experiments.

SMILES | Inter-Ligand NOESY peaks between the fragment and 9
O=c1ccn([C@@H]2O[C@H](CO)[C@@H](O)[C@H]2O)c(=O)[nH]1 [F15] | no
O=c1cc[nH]c(=O)[nH]1 [F16] | no
Nc1cccc(-c2cnco2)c1 [F17] | no
O=C1OCc2ccccc21 [F18] | no
c1ccc(Cn2ccnc2)cc1 [F19] | yes
